Test results from ChEMBL document CHEMBL1128085, “Asymmetric synthesis of FR165914: A novel 3-adrenergic agonist with a benzocycloheptene structure” (Bioorg Med Chem Lett, 1995).

Experiments:
[1] = target: Beta-3 adrenergic receptor (Rattus norvegicus, UniProt P26255); assay: Agonistic activity against Beta-3 adrenergic receptor in rat colon; format: functional
[2] = target: Beta-1 adrenergic receptor (Cavia porcellus, UniProt B0FL73); assay: Agonistic activity against Beta-1 adrenergic receptor in guinea pig atrium; format: functional, tissue-based, Cardiac atrium
Beta-1 adrenergic receptor, sequence (B0FL73 whole entry): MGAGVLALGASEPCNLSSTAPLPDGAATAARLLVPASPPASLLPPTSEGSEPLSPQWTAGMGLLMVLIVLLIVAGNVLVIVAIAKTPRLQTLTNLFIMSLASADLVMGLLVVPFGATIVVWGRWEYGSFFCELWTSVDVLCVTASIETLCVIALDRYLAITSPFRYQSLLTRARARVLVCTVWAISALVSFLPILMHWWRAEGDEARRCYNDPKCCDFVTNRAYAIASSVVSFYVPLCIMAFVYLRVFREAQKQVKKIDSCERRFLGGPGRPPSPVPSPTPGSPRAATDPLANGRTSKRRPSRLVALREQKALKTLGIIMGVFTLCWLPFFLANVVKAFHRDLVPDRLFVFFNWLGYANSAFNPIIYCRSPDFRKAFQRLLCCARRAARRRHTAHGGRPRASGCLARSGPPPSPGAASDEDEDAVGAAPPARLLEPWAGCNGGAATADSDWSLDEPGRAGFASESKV

Beta-3 adrenergic receptor, sequence (P26255 whole entry): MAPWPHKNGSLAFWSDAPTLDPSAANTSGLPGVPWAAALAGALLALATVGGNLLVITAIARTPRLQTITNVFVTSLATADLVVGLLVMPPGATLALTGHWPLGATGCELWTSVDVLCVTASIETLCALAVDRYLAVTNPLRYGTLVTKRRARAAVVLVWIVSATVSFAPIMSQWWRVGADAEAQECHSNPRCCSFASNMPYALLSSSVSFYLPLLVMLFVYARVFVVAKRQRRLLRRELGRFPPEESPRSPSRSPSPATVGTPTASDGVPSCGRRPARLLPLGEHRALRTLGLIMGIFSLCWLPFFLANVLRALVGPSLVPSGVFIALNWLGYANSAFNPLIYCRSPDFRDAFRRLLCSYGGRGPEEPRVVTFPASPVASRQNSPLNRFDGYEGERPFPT

For O=C(O)C1(C(=O)O)Oc2cc3c(cc2O1)C[C@@H](NC[C@H](O)c1cccc(Cl)c1)CCC3, the IC50 [1] was 6 nM and the EC50 [2] was over 10000 nM.
